Key:
[1] = Taste evaluation in neotame-sweetened cola-flavored beverage; details: serine 50 ppm; cola
Procedure: When a neotame salt was used as a taste modifying/sweetening ingredient, the neotame salt as added in an amount sufficient to provide about 15 ppm to about 25 ppm neotame (e.g., about 0.0028 g of a potassium neotame salt would be used to provide 100 ml of a 25 ppm neotame solution). The taste modifying ingredient was dissolved in the sweetened beverage and the beverage was allowed to stand overnight at room temperature prior to evaluation. Evaluations of the cola-flavored beverages were conducted using a beverage containing water, sodium benzoate (0.16%), phosphoric acid (0.22%), citric acid (0.05%), trisodium citrate (0.08%), caffeine (0.03%), Flavor 28 (1.72%), sweetened with neotame in an amount of about 0.0015% to about 0.0025% (15 ppm to 25 ppm), adjusted to pH 3.2 using sodium citrate.

[2] = Taste evaluation in neotame-sweetened reconstituted powdered soft drink; details: serine 5 ppm to 30 ppm; reconstituted strawberry-flavored powdered soft drink
[3] = Taste evaluation in neotame-sweetened strawberry-flavored yogurt; details: serine 25 ppm

Measured: taste characteristic imparted by neotame

N[C@@H](CO)C(=O)O [serine]
positively affected: all assays above

Reference: US6368651B1, “Use of additives to modify the taste characteristics of N-neohexyl-α-aspartyl-L-phenylalanine methyl ester” (The NutraSweet Company, priority 1999, dated 2002)
